# In ChEMBL document CHEMBL1201862, “PubChem BioAssay data set” (2004):
#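 48-hour exposure; five concentrations; linearly interpolated endpoints. GI50 = concentration required for 50% inhibition of growth.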 The source made the active and inactive calls. Cut-off read from the data, not from the text of the source: active = GI50 up to about 1.1 µM and inactive = higher.
# What was measured:
# Experiment in all cases: NCI anticancer screen, dose series, 48 h
# OVCAR-8 = system: OVCAR-8
# RXF 393 = system: RXF 393
# ACHN = system: ACHN
# SNB-75 = system: SNB-75
# SK-OV-3 = system: SK-OV-3
# M14 = system: M14
# CCRF-CEM = system: CCRF-CEM
# COLO 205 = system: COLO 205
# MDA-N = system: MDA-N
# RPMI-8226 = system: RPMI-8226
# PC-3 = system: PC-3
# SNB-19 = system: SNB-19
# Hs-578T = system: Hs-578T
# MCF7 = system: MCF7
# K562 = system: K562
# NCI-H23 = system: NCI-H23
# Malme-3M = system: Malme-3M
# OVCAR-4 = system: OVCAR-4
# U-251 = system: U-251
# SF-268 = system: SF-268
SMILES,GI50 (OVCAR-8),GI50 (RXF 393),GI50 (ACHN),GI50 (SNB-75),GI50 (SK-OV-3),GI50 (M14),GI50 (CCRF-CEM),GI50 (COLO 205),GI50 (MDA-N),GI50 (RPMI-8226),GI50 (PC-3),GI50 (SNB-19),GI50 (Hs-578T),GI50 (MCF7),GI50 (K562),GI50 (NCI-H23),GI50 (Malme-3M),GI50 (OVCAR-4),GI50 (U-251),GI50 (SF-268)
Fc1nc(-c2c3ccccc3c3sc4ccccc4n23)nc(N2CCOCCOCCOCCOCC2)n1,40.2 µM (inactive),18.5 µM (inactive),> 100 µM (inactive),2.56 µM (inactive),71 µM (inactive),> 100 µM (inactive),54.5 µM (inactive),> 100 µM (inactive),> 100 µM (inactive),> 100 µM (inactive),> 100 µM (inactive),35.6 µM (inactive),37.3 µM (inactive),> 100 µM (inactive),> 100 µM (inactive),> 100 µM (inactive),> 100 µM (inactive),> 100 µM (inactive),44.8 µM (inactive),> 100 µM (inactive)
O=C1Sc2cc3ccccc3cc2C(=O)Sc2cc3ccccc3cc21,24.5 µM (inactive),17.7 µM (inactive),28.9 µM (inactive),38.8 µM (inactive),> 100 µM (inactive),27.8 µM (inactive),2.6 µM (inactive),> 100 µM (inactive),29 µM (inactive),6.68 µM (inactive),33.9 µM (inactive),47.1 µM (inactive),44.6 µM (inactive),32.4 µM (inactive),27 µM (inactive),43.3 µM (inactive),34.9 µM (inactive),23.2 µM (inactive),29.6 µM (inactive),26 µM (inactive)
COc1cc(C2C=C(c3ccccc3)Oc3cc4c(cc32)OCO4)cc(OC)c1OC (stereo not given),0.502 µM (active),0.0843 µM (active),1.53 µM (inactive),2.4 µM (inactive),0.191 µM (active),0.35 µM (active),0.46 µM (active),0.33 µM (active),0.249 µM (active),0.555 µM (active),0.354 µM (active),3.94 µM (inactive),0.348 µM (active),0.409 µM (active),0.435 µM (active),0.436 µM (active),0.527 µM (active),6.37 µM (inactive),0.449 µM (active),3.17 µM (inactive)
CCc1c(Cl)nc(Cl)nc1Cl,0.299 µM (active),0.296 µM (active),0.076 µM (active),1.17 µM (inactive),3.07 µM (inactive),0.0438 µM (active),< 0.0121 µM (active),0.0764 µM (active),0.259 µM (active),0.049 µM (active),0.698 µM (active),1.45 µM (inactive),1.13 µM (inactive),0.0578 µM (active),0.0208 µM (active),0.321 µM (active),0.0509 µM (active),0.867 µM (active),0.331 µM (active),0.217 µM (active)
Cc1nc2nn[nH]n2c(=O)c1CCO,> 100 µM (inactive),> 100 µM (inactive),> 100 µM (inactive),26.6 µM (inactive),> 100 µM (inactive),> 100 µM (inactive),> 100 µM (inactive),> 100 µM (inactive),> 100 µM (inactive),> 100 µM (inactive),> 100 µM (inactive),> 100 µM (inactive),> 100 µM (inactive),> 100 µM (inactive),> 100 µM (inactive),> 100 µM (inactive),> 100 µM (inactive),> 100 µM (inactive),> 100 µM (inactive),> 100 µM (inactive)
CO/N=C(/C(=O)N(C(=O)/C(=N/OC)c1csc(NC(c2ccccc2)(c2ccccc2)c2ccccc2)n1)n1cnn(CC(=O)OC(C)(C)C)c1=O)c1csc(NC(c2ccccc2)(c2ccccc2)c2ccccc2)n1,> 10 µM (inactive),> 10 µM (inactive),> 10 µM (inactive),> 10 µM (inactive),> 10 µM (inactive),> 10 µM (inactive),> 10 µM (inactive),> 10 µM (inactive),> 10 µM (inactive),> 10 µM (inactive),1.87 µM (inactive),> 10 µM (inactive),> 10 µM (inactive),> 10 µM (inactive),> 10 µM (inactive),> 10 µM (inactive),> 10 µM (inactive),> 10 µM (inactive),> 10 µM (inactive),> 10 µM (inactive)
Oc1ccc(/C=C\c2nnc(/C=C\c3ccc(O)c(O)c3)s2)cc1O,4.56 µM (inactive),5.16 µM (inactive),3.69 µM (inactive),5.26 µM (inactive),13.6 µM (inactive),6.1 µM (inactive),0.179 µM (active),8.26 µM (inactive),4.68 µM (inactive),1.32 µM (inactive),8.97 µM (inactive),6.07 µM (inactive),3.73 µM (inactive),3 µM (inactive),1.21 µM (inactive),3.34 µM (inactive),2.03 µM (inactive),4.34 µM (inactive),4.07 µM (inactive),2.89 µM (inactive)
CSC(=Nc1nnc(-c2ccc([N+](=O)[O-])cc2)s1)SC,34.4 µM (inactive),20 µM (inactive),42.9 µM (inactive),11.9 µM (inactive),27.6 µM (inactive),> 90.6 µM (inactive),> 100 µM (inactive),> 100 µM (inactive),> 72.9 µM (inactive),> 100 µM (inactive),> 41.9 µM (inactive),23.9 µM (inactive),28.3 µM (inactive),36.6 µM (inactive),> 100 µM (inactive),27.8 µM (inactive),> 74.1 µM (inactive),45.8 µM (inactive),21.4 µM (inactive),16.7 µM (inactive)
COc1ccc(C(=O)N(Cc2cccnc2)C(=S)N(Cc2cccnc2)C(=O)c2ccc(OC)cc2)cc1,66.8 µM (inactive),38.8 µM (inactive),> 100 µM (inactive),17.2 µM (inactive),67.3 µM (inactive),> 100 µM (inactive),> 100 µM (inactive),> 100 µM (inactive),> 100 µM (inactive),> 100 µM (inactive),> 100 µM (inactive),40.3 µM (inactive),> 100 µM (inactive),> 100 µM (inactive),> 100 µM (inactive),> 100 µM (inactive),> 100 µM (inactive),37.4 µM (inactive),55.2 µM (inactive),52.1 µM (inactive)
CC(C)/C(Cl)=N\OC(=O)Nc1ccccc1F,17.2 µM (inactive),3.15 µM (inactive),12.4 µM (inactive),10.2 µM (inactive),19.2 µM (inactive),5.73 µM (inactive),0.741 µM (active),2.03 µM (inactive),16.6 µM (inactive),6.04 µM (inactive),17.2 µM (inactive),> 42.9 µM (inactive),25.9 µM (inactive),5.64 µM (inactive),1.95 µM (inactive),17.7 µM (inactive),3.94 µM (inactive),17.3 µM (inactive),17.3 µM (inactive),21 µM (inactive)
COc1cccc(NC(=O)CC(=O)N2N=C(C)C(/N=N\c3ccc(S(=O)(=O)c4ccc(/N=N/C5C(=O)N(C(=O)CC(=O)Nc6cccc(OC)c6)N=C5C)cc4)cc3)C2=O)c1 (stereo not given),> 100 µM (inactive),> 100 µM (inactive),> 100 µM (inactive),> 100 µM (inactive),> 100 µM (inactive),> 100 µM (inactive),> 100 µM (inactive),> 100 µM (inactive),> 100 µM (inactive),> 100 µM (inactive),> 100 µM (inactive),> 100 µM (inactive),> 100 µM (inactive),> 100 µM (inactive),> 100 µM (inactive),> 100 µM (inactive),58.9 µM (inactive),> 100 µM (inactive),> 100 µM (inactive),> 100 µM (inactive)
O=c1[nH]c(=O)n(C2CC(O)C(CO)O2)cc1I (stereo not given),> 100 µM (inactive),> 100 µM (inactive),> 100 µM (inactive),> 100 µM (inactive),> 100 µM (inactive),> 70.3 µM (inactive),17.5 µM (inactive),> 100 µM (inactive),> 100 µM (inactive),> 43.8 µM (inactive),> 100 µM (inactive),> 100 µM (inactive),> 100 µM (inactive),18.5 µM (inactive),> 23.1 µM (inactive),> 100 µM (inactive),> 100 µM (inactive),> 100 µM (inactive),> 100 µM (inactive),> 100 µM (inactive)
NC(=O)CSc1c2cc(O)ccc2nc2ccc(O)cc12,> 10 µM (inactive),> 10 µM (inactive),> 10 µM (inactive),> 10 µM (inactive),> 10 µM (inactive),> 10 µM (inactive),> 10 µM (inactive),> 10 µM (inactive),> 10 µM (inactive),> 10 µM (inactive),> 10 µM (inactive),> 10 µM (inactive),> 10 µM (inactive),> 10 µM (inactive),> 10 µM (inactive),> 10 µM (inactive),> 10 µM (inactive),> 10 µM (inactive),> 10 µM (inactive),> 10 µM (inactive)
O=[N+]([O-])c1ccc2c3c1[C@@H]1O[C@@H]1c1cccc(c1-3)[C@@H]1O[C@H]21,2.04 µM (inactive),4.17 µM (inactive),1.94 µM (inactive),5.68 µM (inactive),17.4 µM (inactive),3.24 µM (inactive),2.45 µM (inactive),6.47 µM (inactive),3.04 µM (inactive),1.88 µM (inactive),7.91 µM (inactive),14.6 µM (inactive),3.1 µM (inactive),3.55 µM (inactive),4.2 µM (inactive),3.94 µM (inactive),3.49 µM (inactive),3.35 µM (inactive),4.08 µM (inactive),2.56 µM (inactive)
